Experimental data taken from patent publication US6787541B1, “Thieno-and furopyrimidine derivatives as A2A-receptor antagonists” (Vernalis Research Limited, priority 1999, dated 2004).
Counter-ions that a name gives are not always drawn.

tested on: not given; experiment: not given

SMILES	melting point
O=C(c1cccs1)c1nc(NCc2ccco2)nc2ccsc12 [Example 96, 2-(2-Furylmethylamino)thieno[3,2-d]primidin-4-yl 2-thienylmethanone]	> 140 °C (dec.)
Cc1csc2c(C(=O)c3cccs3)nc(N(C)C)nc12 [Example 38, 2-Dimethylamino-7-methylthieno[3,2-d]pyrimidin-4-yl 2-thienylmethanone]	156 to 158 °C
Cc1ccsc1C(=O)c1nc(N(C)C)nc2ccsc12 [Example 117, 2-Dimethylaminothieno[3,2-d]pyrimidin-4-yl 3-methyl-2-thienylmethanone]	165.1 to 165.7 °C
Cc1ccc(C(=O)c2nc(C(F)(F)F)nc3ccsc23)s1	161 to 163 °C
CC(=O)NCCNc1nc(C(=O)c2cccs2)c2sccc2n1 [Example 90, N-(2-(4-(2-Thienylcarbonyl)thieno[3,2-d]pyrimidin-2-yl)aminoethyl)acetamide]	212.2 to 212.5 °C
Cc1c(C(=O)c2nc(C(F)(F)F)nc3ccsc23)sc2ccccc12 [Example 62, 3-Methylbenzothiophene-2-yl 2-trifluoromethylthieno[3,2-d]pyrimidin-4-ylmethanone]	262 to 263 °C
Cc1nc(C(O)c2cccs2)c2sccc2n1 (stereo not drawn) [Example 53, 2-Methyl-α-(2-thienyl)thieno[3,2-d]pyrimidine-4-methanol]	144 to 146 °C
OC(c1cccs1)c1nc(C(F)(F)F)nc2ccsc12 (stereo not drawn) [Example 41, α-(2-Thienyl)-2-trifluoromethylthieno[3,2-d]pyrimidine-4-methanol]	157 to 158 °C
COc1ccc(C(=O)c2nc(C(F)(F)F)nc3ccsc23)cc1 [Example 27, 4-Methoxyphenyl 2-trifluoromethylthieno[3,2-d]pyrimidin-4-ylmethanone]	155 to 157 °C
NCCNc1nc(C(=O)c2cccs2)c2sccc2n1 (as salt: hydrochloride) [Example 55, 2-(2-Aminoethylamino)thieno[3,2-d]pyrimidin-4-yl 2-thienylmethanone dihydrochloride]	> 190 °C (dec.)
O=C(c1cccs1)c1nc(N2CCC[C@@H]2C(=O)O)nc2ccsc12 [Example 121, (2R)-N-(4-(2-Thienylcarbonyl)thieno[3,2-d]pyrimidin-2-yl)proline]	> 131 °C (dec.)
O=C(c1cccnc1)c1nc(NCCO)nc2ccsc12 [Example 106, 2-(2-Hydroxyethylamino)thieno[3,2-d]pyrimidin-4-yl 3-pyridylmethanone]	161 to 163 °C
CCc1nc(C(O)c2cccs2)c2sccc2n1 (stereo not drawn) [Example 36, 2-Ethyl-α-(2-thienyl)thieno[3,2-d]pyrimidine-4-methanol]	147 to 149 °C
O=C(c1cc2ccccc2o1)c1nc(C(F)(F)F)nc2ccsc12 [Example 15, 2-Benzofuranyl 2-trifluoromethylthieno[3,2-d]pyrimidin-4-ylmethanone]	221 to 223 °C
Cc1csc2c(C(=O)c3cccs3)nc(Cl)nc12 [Example 24, 2-Chloro-7-methylthieno[3,2-d]pyrimidin-4-yl 2-thienylmethanone]	188 to 190 °C
O=C(c1cc(Cl)cc(Cl)c1)c1nc(C(F)(F)F)nc2ccsc12 [Example 10, 3,5-Dichlorophenyl 2-trifluoromethylthieno[3,2-d]pyrimidin-4-ylmethanone]	147 to 149 °C
CN(C)CCNc1nc(C(=O)c2cccs2)c2sccc2n1 (as salt: hydrochloride) [Example 66, 2-(2-Dimethylaminoethylamino)thieno[3,2-d]pyrimidin-4-yl 2-thienylmethanone dihydrochloride]	> 150 °C (dec.)
O=C(c1cccs1)c1nc(N2CCCC2)nc2ccsc12 [Example 109, 2-(Pyrrolidin-1-yl)thieno[3,2-d]pyrimidin-4-yl 2-thienylmethanone]	229.1 to 229.4 °C
CN(C)c1nc(C(=O)c2ccco2)c2sccc2n1 [Example 105, 2-Dimethylaminothieno[3,2-d]pyrimidin-4-yl 2-furylmethanone]	210 to 212 °C
CC(C)(CO)Nc1nc(C(=O)c2cccs2)c2sccc2n1 [Example 119, 2-(1-Hydroxy-2-methyl-2-propylamino)thieno[3,2-d]pyrimidin-4-yl 2-thienylmethanone]	126.4 to 127.1 °C
O=C(c1ccc([N+](=O)[O-])cc1)c1nc(C(F)(F)F)nc2ccsc12 [Example 31, 4-Nitrophenyl 2-trifluoromethylthieno[3,2-d]pyrimidin-4-ylmethanone]	185 to 186 °C
COC(=O)[C@@H]1CCCN1c1nc(C(=O)c2cccs2)c2sccc2n1 [Example 115, (2S)-N-(4-(2-Thienylcarbonyl)thieno[3,2-d]pyrimidin-2-yl)proline methyl ester]	155.9 to 156.3 °C
Cc1cccc(C(=O)c2nc(C(F)(F)F)nc3ccsc23)c1 [Example 32, 3-Methylphenyl 2-trifluoromethylthieno[3,2-d]pyrimidin-4-ylmethanone]	131 to 133 °C
O=C(c1cccc(Cl)c1)c1nc(C(F)(F)F)nc2ccsc12 [Example 9, 3-Chlorophenyl 2-trifluoromethylthieno[3,2-d]pyrimidin-4-ylmethanone]	128 to 130 °C
CN(CCN)c1nc(C(=O)c2cccs2)c2sccc2n1 [Example 120, 2-(N-(2-Aminoethyl)-N-methylamino)thieno[3,2-d]pyrimidin-4-yl 2-thienylmethanone]	151.6 to 152.4 °C
O=C(c1ccc(Cl)cc1)c1nc(C(F)(F)F)nc2ccsc12 [Example 30, 4-Chlorophenyl 2-trifluoromethylthieno[3,2-d]pyrimidin-4-ylmethanone]	127 to 128 °C

Results, then the molecule that gave them:

melting point	SMILES
232.1 to 233.7 °C	NC(=O)CNc1nc(C(=O)c2cccs2)c2sccc2n1 [Example 125, (4-(2-Thienylcarbonyl)thieno[3,2-d]pyrimidin-2-ylamino)acetamide]
143.6 to 144.7 °C	CN(C)CCNC(=O)c1nc(C(=O)c2cccs2)c2sccc2n1 [Example 134, N-(2-Dimethylaminoethyl)-4-(2-thienylcarbonyl)thieno[3,2-d]pyrimidin-2-carboxamide]
173.1 to 174 °C	CN(C)C(=O)c1nc(C(=O)c2cccs2)c2sccc2n1 [Example 136, N,N-Dimethyl-4-(2-thienylcarbonyl)thieno[3,2-d]pyrimidin-2-carboxamide]
185.7 to 186.2 °C	CCOC(=O)c1nc(C(=O)c2cccs2)c2sccc2n1 [Example 122, Ethyl 4-(2-thienylcarbonyl)thieno[3,2-d]pyrimidin-2-carboxylate]
252.8 to 253.3 °C	C=CCNC(=O)NNc1nc(C(=O)c2cccs2)c2sccc2n1 [Example 131, N-Allyl-2-(4-(2-thienylcarbonyl)thieno[3,2-d]pyrimidin-2-yl)hydrazinecarboxamide]
96.2 to 96.9 °C	Cc1ccsc1C(=O)c1nc(N2CCC[C@@H]2CO)nc2ccsc12 [Example 129, (2R)-2-(2-Hydroxymethylpyrrolidin-1-yl)thieno[3,2-d]pyrimidin-4-yl 3-methyl-2-thienylmethanone]
151 °C	CN(C)CC(=O)Nc1nc(C(=O)c2cccs2)c2sccc2n1 (as salt: hydrochloride) [Example 169, 2-Dimethylamino-N-(4-(2-thienylcarbonyl)thieno[3,2-d]pyrimidin-2-yl)acetamide hydrochloride]
258.3 to 259 °C	CC(=O)NNc1nc(C(=O)c2cccs2)c2sccc2n1 [Example 130, Acetic acid 2-(4-(2-thienylcarbonyl)thieno[3,2-d]pyrimidin-2-yl)hydrazide]
242.1 to 242.7 °C	CS(=O)(=O)NNc1nc(C(=O)c2cccs2)c2sccc2n1 [Example 128, Methanesulphonic acid 2-(4-(2-thienylcarbonyl)thieno[3,2-d]pyrimidin-2-yl)hydrazide]
144.6 to 145.2 °C	COC(=O)CNc1nc(C(=O)c2cccs2)c2sccc2n1 [Example 123, Methyl (4-(2-thienylcarbonyl)thieno[3,2-d]pyrimidin-2-ylamino)acetate]
232.8 to 233 °C	COC(=O)c1nc(C(=O)c2cccs2)c2sccc2n1 [Example 126, Methyl 4-(2-thienylcarbonyl)thieno[3,2-d]pyrimidin-2-carboxylate]
138.1 to 138.7 °C	Cc1ccsc1C(=O)c1nc(NCCCn2ccnc2)nc2ccsc12 [Example 132, 2-(3-(1H-imidazol-1-yl)propylamino)thieno[3,2-d]pyrimidin-4-yl 3-methyl-2-thienylmethanone]

molecular target: T1, human adenosine A2A receptors expressed in HEK-293 cells (Homo sapiens, UniProt P29274); experiment: Binding affinities at hA2A receptors, displacement of [3H]-CGS 21680
T1 construct: expressed in transfected cells; host or cells: HEK-293 cells
T1 sequence (P29274 whole entry): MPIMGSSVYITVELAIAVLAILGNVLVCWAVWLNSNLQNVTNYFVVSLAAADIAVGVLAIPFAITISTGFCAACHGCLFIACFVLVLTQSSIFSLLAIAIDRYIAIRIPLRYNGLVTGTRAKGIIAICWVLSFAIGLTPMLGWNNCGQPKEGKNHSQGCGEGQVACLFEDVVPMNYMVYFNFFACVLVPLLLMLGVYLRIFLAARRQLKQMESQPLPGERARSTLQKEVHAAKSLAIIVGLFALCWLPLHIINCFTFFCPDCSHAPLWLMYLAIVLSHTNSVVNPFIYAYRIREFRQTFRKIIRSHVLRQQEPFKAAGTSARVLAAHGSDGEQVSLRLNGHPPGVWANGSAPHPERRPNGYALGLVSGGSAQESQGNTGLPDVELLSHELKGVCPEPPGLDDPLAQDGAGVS

SMILES	Ki [nM]
CNc1nc(C(=O)c2cccs2)c2sccc2n1 [Example 58, 2-Methylaminothieno[3,2-d]pyrimidin-4-yl thienylmethanone]	15
CCCc1nc(C(O)c2cccs2)c2sccc2n1 (stereo not drawn) [Example 67, 2-n-Propyl-α-(2-thienyl)thieno[3,2-d]pyrimidine-4-methanol]	469
CC(CO)Nc1nc(C(=O)c2cccs2)c2sccc2n1 (racemic) [Example 89, (2RS)-2-(1-Hydroxy-2-propylamino)thieno[3,2-d]pyrimidin-4-yl 2-thienylmethanone]	3

Continued, values first:

Ki [nM]	SMILES
4	CC(C)CC(=O)NCCNc1nc(C(=O)c2cccs2)c2sccc2n1 [Example 150, 3-Methyl-N-(2-(4-(2-thienylcarbonyl)thieno[3,2-d]pyrimidin-2-yl)aminoethyl)butanamide]
8	C=CCNC(=O)NCCNc1nc(C(=O)c2cccs2)c2sccc2n1 [Example 159, N-Allyl-N′-(2-(4-(2-thienylcarbonyl)thieno[3,2-d]pyrimidin-2-yl)aminoethyl)urea]
5	O=C(c1cccs1)c1nc(NCCc2cnc[nH]2)nc2ccsc12 [Example 144, 2-(2-(1H-Imidazol-4-yl)ethylamino)thieno[3,2-d]pyrimdin-4-yl 2-thienylmethanone]
6	O=C(NCCNc1nc(C(=O)c2cccs2)c2sccc2n1)OCCCl [Example 158, 2-Chloroethyl (2-(4-(2-thienylcarbonyl)thieno[3,2-d]pyrimidin-2-yl)aminoethyl)carbamate]
